Source: US20100197604A1, “USE OF PEPTIDE AS A THERAPEUTIC AGENT” (priority 2007, published 2010)

Tested on: drug-resistant Mycobacterium tuberculosis
Details: drug-resistant Mycobacterium tuberculosis growth; peptide 10 micrograms per ml; seven days

With `CC[C@H](C)[C@H](NC(=O)[C@H](Cc1ccc(O)cc1)NC(=O)[C@@H](NC(=O)[C@H](CCCNC(=N)N)NC(=O)[C@@H](N)CC(=O)O)C(C)C)C(=O)N[C@@H](Cc1c[nH]cn1)C(=O)N1CCC[C@H]1C(=O)N[C@@H](Cc1ccccc1)C(=O)O` [Angiotensin II] the “% inhibition” value was 0.0%.
